Experimental data reported in patent US7378446B2, “Compound having anti-HCV activity and process for producing the same” (Chugai Seiyaku Kabushiki Kaisha, priority 2003, dated 2008).

Tests used:
[1] = tested on: Firefly luciferase HCV replicon cells (3-1); test: Replicon assay (firefly luciferase HCV replicon); assay type: cell-based; settings: Hepatitis C virus, 72 h; Huh7-derived luciferase HCV replicon cells, 3 days culture with compound, Steady-Glo luminescence
Procedure: (§1) A construct was prepared in which a luciferase gene derived from firefly was introduced as a reporter gene in HCV-RNA to assay the number of copies of HCV-RNA. The luciferase gene was introduced in the form of fusing with neomycin-resistance gene directly below the IRES (Internal Ribosome Entry Site) of the HCV gene in accordance with the method of Krieger, et al. (J. Virol. 75:4614). After synthesizing this RNA in vitro, it was introduced into Huh7 cell by electroporation and isolated as G418-resistant clone. Firefly luciferase HCV replicon cells (3-1) were suspended in Dulbecco's MEM (Gibco cat. no. 10569-010) containing 5% fetal bovine serum (Hyclone cat. no. SH30071.03), inoculated into the wells of a 96-well plate at 5000 cells/well and then cultured overnight at 37° C. and 5% CO2. Approximately 20 hours later, the diluted test compound was added at 10 μl per well followed by culturing for another 3 days. Two series of assay plates were prepared, and the assay was carried out using a white plate for one series and a clear plate for the other series. Following completion of culturing, the white plate was used for the Steady-Glo Luciferase Assay System (Promega cat. no. E2520). Namely, after adding 100 μl of reagent per well, mixing by a pipette 3 to 4 times and then allowing to stand for 5 minutes, luminescence was measured with the 1450 MicroBeta TRILUX (Wallac). Values obtained in the absence of cell addition were used as background values and subtracted from all values to calculate the IC50 (50% inhibitory concentration) of the drug based on a value of 0% inhibition for the value in the absence of addition of test compound.

in vitro = assay type: cell-based; settings: human; replicon cells, 3 days culture with compound, Cell Counting Kit 8, absorbance 450 nm; read-out: Cytotoxicity CC50
Procedure: as §1
The Cell Counting Kit 8 (Dojindo cat. no. CK04) was used to determine the cytotoxicity. Namely, 10 μl of Cell Counting Kit 8 were added to a clear plate and incubated for 30 to 60 minutes at 37° C. Absorbance at a wavelength of 450 nm and a control wavelength of 630 nm was measured with a 96-well plate reader. Values in the absence of cell addition were used as background values and subtracted from all values to calculate the CC50 (50% cell inhibitory concentration) of the drug based on a value of 0% inhibition for the value in the absence of addition of drug.

Row | Compound | IC50 [1] | CC50 (in vitro)
1 | CCCCCCCC(=O)CCCCCC/C=C/[C@H](C(=O)N[C@@H](Cc1ccc(CCCC(C)C)cc1)C(=O)O)[C@@](O)(CC(=O)O)C(=O)O [Compound 22] | 14 nM | > 1000 nM
2 | CCCCCCCCCC(=O)CCCC/C=C/[C@H](C(=O)N[C@@H](Cc1ccc(-c2ccccc2)cc1)C(=O)O)[C@@](O)(CC(=O)O)C(=O)O [Compound 100] | 92 nM | > 1000 nM
3 | CCC#CCOc1ccc(C[C@H](NC(=O)[C@@H](/C=C/CCCCCCC(=O)CCCCCCC)[C@@](O)(CC(=O)O)C(=O)O)C(=O)O)cc1 [Compound 109] | 2 nM | > 1000 nM
4 | CCCCCCCC(=O)CCCCCC/C=C/[C@H](C(=O)N[C@@H](Cc1ccc(OCC#CC#CC(C)(C)C)cc1)C(=O)O)[C@@](O)(CC(=O)O)C(=O)O [Compound 111] | 6 nM | > 1000 nM
5 | CCCCCCCC(=O)CCCCCC/C=C/[C@H](C(=O)N[C@@H](Cc1ccc(-c2ccc(SC)cc2)cc1)C(=O)O)[C@@](O)(CC(=O)O)C(=O)O [Compound 77] | 7 nM | > 1000 nM
6 | CCCCCCCC(=O)CCCCCC/C=C/[C@H](C(=O)N[C@@H](Cc1ccc(Nc2ccccc2)cc1)C(=O)O)[C@@](O)(CC(=O)O)C(=O)O [Compound 69] | 2 nM | > 1000 nM
7 | CCCCCCCC(=O)CCCCCC/C=C/[C@H](C(=O)N[C@@H](Cc1ccc(Oc2cccc(C(F)(F)F)c2)cc1)C(=O)O)[C@@](O)(CC(=O)O)C(=O)O [Compound 57] | 11 nM | > 1000 nM
8 | CCCCCCCC(=O)CCCCCC/C=C/[C@H](C(=O)N[C@@H](Cc1ccc(Oc2ccc(C#N)cc2)cc1)C(=O)O)[C@@](O)(CC(=O)O)C(=O)O [Compound 70] | 11 nM | > 1000 nM
9 | CCCC#CCOc1ccc(C[C@H](NC(=O)[C@@H](/C=C/CCCCCCC(=O)CCCCCCC)[C@@](O)(CC(=O)O)C(=O)O)C(=O)O)cc1 [Compound 104] | 1 nM | > 1000 nM
10 | CCCCCCCC(=O)CCCCCC/C=C/[C@H](C(=O)N[C@@H](Cc1cccnc1)C(=O)O)[C@@](O)(CC(=O)O)C(=O)O [Compound 97] | 302 nM | > 1000 nM
11 | C=CCCCCCC(=O)CCCCCC/C=C/[C@H](C(=O)N[C@@H](Cc1ccc(OCCC(C)C)cc1)C(=O)O)[C@@](O)(CC(=O)O)C(=O)O [Compound 48] | 3 nM | > 1000 nM
12 | CCCCCCCC(=O)CCCCCC/C=C/[C@H](C(=O)N[C@@H](Cc1ccc(N2CCOCC2)cc1)C(=O)O)[C@@](O)(CC(=O)O)C(=O)O [Compound 72] | 6 nM | > 1000 nM
13 | CCCCCCCC(=O)CCCCCC/C=C/[C@H](C(=O)NC(Cc1ccc([N+](=O)[O-])cc1)C(=O)O)[C@@](O)(CC(=O)O)C(=O)O (stereo partly shown) [Compound 35] | 80 nM | > 1000 nM
14 | CCCCCCCC(=O)CCCCCC/C=C/[C@H](C(=O)N[C@@H](Cc1ccc(OC2CCN(C)CC2)cc1)C(=O)O)[C@@](O)(CC(=O)O)C(=O)O [Compound 83] | 108 nM | > 1000 nM
15 | CCCCCCCC(=O)CCCCCC/C=C/[C@H](C(=O)N[C@@H](Cc1ccc(Oc2ccc(C)cc2)cc1)C(=O)O)[C@@](O)(CC(=O)O)C(=O)O [Compound 53] | 2 nM | > 1000 nM
16 | CCCCCCCC(=O)CCCCCC/C=C/[C@H](C(=O)NC(Cc1ccc(C#N)cc1)C(=O)O)[C@@](O)(CC(=O)O)C(=O)O (stereo partly shown) [Compound 33] | 12 nM | > 1000 nM
17 | CCCCCCCC(=O)CCCCCC/C=C/[C@H](C(=O)N[C@@H](Cc1ccc(Oc2ccc(C(F)(F)F)cc2)cc1)C(=O)O)[C@@](O)(CC(=O)O)C(=O)O [Compound 55] | 19 nM | > 1000 nM
18 | CCCCCCCC(=O)CCCCCC/C=C/[C@H](C(=O)N[C@@H](Cc1ccc(C(C)(C)C)cc1)C(=O)O)[C@@](O)(CC(=O)O)C(=O)O [Compound 37] | 210 nM | > 1000 nM
19 | CCCCCCCC(=O)CCCCCC/C=C/[C@H](C(=O)N[C@@H](Cc1ccc(OCCCN(C)C)cc1)C(=O)O)[C@@](O)(CC(=O)O)C(=O)O [Compound 84] | 43 nM | > 1000 nM
20 | CCCCCCCC(=O)CCCCCC/C=C/[C@H](C(=O)N[C@@H](Cc1ccc(OCC#CCN(CC)CC)cc1)C(=O)O)[C@@](O)(CC(=O)O)C(=O)O [Compound 108] | 3 nM | > 1000 nM
21 | CCCCCCCC(=O)CCCCCC/C=C/[C@H](C(=O)N[C@@H](Cc1ccc(CN)cc1)C(=O)O)[C@@](O)(CC(=O)O)C(=O)O [Compound 94] | 280 nM | > 1000 nM

Row | Compound | IC50 [1] | CC50 (in vitro)
22 | CCCCCCCC(=O)CCCCCC/C=C/[C@H](C(=O)N[C@@H](Cc1ccc(N=[N+]=[N-])cc1)C(=O)O)[C@@](O)(CC(=O)O)C(=O)O [Compound 90] | 6 nM | > 1000 nM
23 | CCCCCCCC(=O)CCCCCC/C=C/[C@H](C(=O)N[C@@H](Cc1ccc(OCCCNCc2cccnc2)cc1)C(=O)O)[C@@](O)(CC(=O)O)C(=O)O [Compound 88] | 18 nM | > 1000 nM
24 | CC(C)CCOc1ccc(C[C@H](NC(=O)[C@@H](/C=C/CCCCCCC(=O)CCc2ccccc2)[C@@](O)(CC(=O)O)C(=O)O)C(=O)O)cc1 [Compound 47] | 250 nM | > 1000 nM
25 | CCCCCCCC(=O)CCCCCC/C=C/[C@H](C(=O)N[C@@H](Cc1ccc(NC(C)=O)cc1)C(=O)O)[C@@](O)(CC(=O)O)C(=O)O [Compound 93] | 12 nM | > 1000 nM
26 | CCCCCCCC(=O)CCCCCC/C=C/[C@H](C(=O)N[C@@H](Cc1ccc2ccccc2c1)C(=O)O)[C@@](O)(CC(=O)O)C(=O)O [Compound 20] | 7 nM | > 5000 nM
27 | CC#CCOc1ccc(C[C@H](NC(=O)[C@@H](/C=C/CCCCCCC(=O)CCCCCCC)[C@@](O)(CC(=O)O)C(=O)O)C(=O)O)cc1 [Compound 18] | 1 nM | > 5000 nM
28 | CCCCCCCC(=O)CCCCCC/C=C/[C@H](C(=O)N[C@@H](Cc1ccc(-c2ccc(OC)nc2)cc1)C(=O)O)[C@@](O)(CC(=O)O)C(=O)O [Compound 73] | 2 nM | > 1000 nM
29 | CCCCCCCC(=O)CCCCCC/C=C/[C@H](C(=O)N[C@@H](Cc1ccc(-c2cccnc2)cc1)C(=O)O)[C@@](O)(CC(=O)O)C(=O)O [Compound 27] | 10 nM | > 1000 nM
30 | CCCCCCCC(=O)CCCCCC/C=C/[C@H](C(=O)N[C@@H](Cc1ccc(-c2ccc(OC)cc2)cc1)C(=O)O)[C@@](O)(CC(=O)O)C(=O)O [Compound 58] | 4 nM | > 1000 nM
31 | CCCCCCCC(=O)CCCCCC/C=C/[C@H](C(=O)N[C@@H](Cc1ccc(Oc2cccc(F)c2)cc1)C(=O)O)[C@@](O)(CC(=O)O)C(=O)O [Compound 64] | 7 nM | > 1000 nM
32 | CCCCCCCC#CCOc1ccc(C[C@H](NC(=O)[C@@H](/C=C/CCCCCCC(=O)CCCCCCC)[C@@](O)(CC(=O)O)C(=O)O)C(=O)O)cc1 [Compound 110] | 5 nM | > 1000 nM
33 | CCCCCCCC(=O)CCCCCC/C=C/[C@H](C(=O)N[C@@H](Cc1ccc(Oc2ccc(OC)cc2)cc1)C(=O)O)[C@@](O)(CC(=O)O)C(=O)O [Compound 54] | 2 nM | > 1000 nM
34 | CCCCCCCC(=O)CCCCCC/C=C/[C@H](C(=O)N[C@@H](Cc1ccc(Oc2cccc(Cl)c2)cc1)C(=O)O)[C@@](O)(CC(=O)O)C(=O)O [Compound 39] | 20 nM | > 1000 nM
35 | CCCCCCCC(=O)CCCCCC/C=C/[C@H](C(=O)N[C@@H](Cc1cccs1)C(=O)O)[C@@](O)(CC(=O)O)C(=O)O [Compound 36] | 500 nM | > 1000 nM
36 | CCCCCCCC(=O)CCCCCC/C=C/[C@H](C(=O)N[C@@H](Cc1ccc(-c2ccc(C#N)cc2)cc1)C(=O)O)[C@@](O)(CC(=O)O)C(=O)O [Compound 71] | 4 nM | > 1000 nM
37 | CCCCCCCCC(=O)CCCCCC/C=C/[C@H](C(=O)N[C@@H](Cc1ccc(OCCC(C)C)cc1)C(=O)O)[C@@](O)(CC(=O)O)C(=O)O [Compound 49] | 4 nM | > 1000 nM
38 | CCCCCCC(=O)CCCCCC/C=C/[C@H](C(=O)N[C@@H](Cc1ccc(-c2ccccc2)cc1)C(=O)O)[C@@](O)(CC(=O)O)C(=O)O [Compound 102] | 5 nM | > 1000 nM
39 | CCCCCCCC(=O)CCCCCC/C=C/[C@H](C(=O)N[C@@H](Cc1ccc(-c2ccccc2)cc1)C(=O)O)[C@@](O)(CC(=O)O)C(=O)O [Compound 19] | 2 nM | > 5000 nM
40 | CCCCCCCC(=O)CCCCCC/C=C/[C@H](C(=O)N[C@@H](Cc1ccc(-c2cncc(OC)c2)cc1)C(=O)O)[C@@](O)(CC(=O)O)C(=O)O [Compound 78] | 3 nM | > 1000 nM
41 | CCCCCCCC(=O)CCCCCC/C=C/[C@H](C(=O)N[C@@H](Cc1ccc(-c2cccc(C)c2)cc1)C(=O)O)[C@@](O)(CC(=O)O)C(=O)O [Compound 61] | 6 nM | > 1000 nM
